Reference: US9393317B2, “Peptide-conjugated oligonucleotide therapeutic and method of making and using same” (Sloan-Kettering Institute for Cancer Research, priority 2008, dated 2016)
{C6NH2} = C6-amino linker; d = 2'-deoxy (DNA); m = 2'-O-methyl

Assays:
[1] = tested on: endothelial cells (HUVECs and the murine endothelioma cell line EOMA); assay: Uptake of fluorescence labeled Id1-PCAO by endothelial cells, confocal fluorescence microscopy; type: cell-based; conditions: 200 nM, no lipid or other carrier
Description: In order to determine if the Id1 PCAO retained the homing specificity of the F3 peptide and could be taken up by cells in the absence of lipid or other specialized carrier, fluorescence labeled Id1-PCAOs were supplied to different cell lines at a concentration of 200 nM. […] Fluorescein and tetra methyl-rhodamine red labeled PCAOs were also tested to control for the effects of the fluorophore and similar results were obtained. To rule out effects from the fixation process we performed epifluorescence live imaging on viable HUVECs and HeLa cells and similar results were observed.
HUVEC were seeded 24 h prior to transfection at 10^5 cells/well in six-well MWDs in standard growth media (EGM-2) without antibiotics. At the day of transfection the AO-conjugates and control oligos were diluted in EGM-2 to the indicated concentration. Media was replaced with the supplemented EGM-2. The procedure was repeated every 24 h for two more days, samples were drawn at the indicated time points and analyzed via western blot. Other cell lines were treated similarly, with the exception that Id1-PCAO was added to standard growth media, DME or RPMI 1640 in accordance to cell type. Uptake studies in different cell lines with fluorescence labeled Id1-PCAO were performed in both the standard growth media (DME, RPMI 1640 or EGM-2) or in OptiMEM I (supplemented with 2% FBS) to control for media effects.

Id1 = assay: Down-regulation of Id1 in tumor endothelium of MMTV-HER2/neu (YD) breast carcinoma, IHC; type: in vivo, mouse
Description: Homing studies were also performed in animals bearing spontaneous tumors in MMTV-HER2/neu (YD) and PTEN+/− backgrounds. […] To test if the PCAOs down-regulate Id1 protein levels in vivo, tumor bearing transgenic MMTV-HER2/neu (YD) Id1+/− mice were injected intravenously with Id1-PCAOs. Since repeated application of the drug was necessary to yield significant down-regulation in vitro, the animals were treated with […] of Id1-PCAO or Id1-AO for three consecutive days. Over 80% of tumor vessels in animals treated with Id1-PCAO were completely negative for Id1 expression by IHC.
YD neu transgenic animals bearing breast carcinoma were treated for 3 subsequent days with 25 nmol of either Id1-ASO or F3-Id1-ASO conjugate in PBS by i.v. injection. 24 h after the last injection animals were sacrificed, the tumor removed, fixed in paraformaldehyde and embedded in parafine. IHC staining was performed for Id1 (antibody C-20, SantaCruz Biotechnology, Santa Cruz, Calif.) on sections.

HUVEC = assay: Wound healing (scratch) assay; type: cell-based, human; conditions: 200 nM, 72 h treatment, 22 h after scratch
Description: HUVEC (4th passage) were seeded 100,000 cells into the wells of a fibronectin coated two-well chamber slides (BD Bioscience). Medium was exchanged after 18 h with standard medium containing either F3-ASO conjugates or ASO at a concentration of 200 nM. The treatment was repeated every 24 h for two more days. 72 h after starting the treatment a scratch was applied with a micropipette-tip. Media was removed the cell-layer once washed with PBS and media containing the F3-conjugate or the control ASO was added. The chamber slides were incubated at 37° C. with 5% CO2 for 22 h. The cells were washed with PBS, fixed with 4% paraformaldehyde in PBS for 20 min at r.t., and washed twice with PBS. The slides were mounted and images were taken under a light microscope to access the grade of closure of the applied scratch.
HUVEC were plated in fibronectin coated two-well chamber slides (BD Bioscience) at 2.5×10^4 cells/well. Growth media was supplemented with 200 nM Id1-PCAO (or Id1-AO) and renewed every 24 h. 72 h after plating a scratch was applied using a 20 μl pipette tip. Chambers were washed with media and supplemented media was added. 18 h after the scratch was applied, cells were fixed and imaged.

Substance: GCACCagctccttgaggcGUGAG (antisense GCACCAGCTCCTTGAGGCGUGAG; sugars from the 5' end m5 d13 m5, 5' {C6NH2}, backbone and methylation of C not given here; DNA gap phosphorothioate linked, F3 peptide conjugate form, further chemistry not fully specified) [Id1-AO, ID No. 2]
- uptake / internalization into endothelial cells [1]: no internalization was observed
- down-regulation of Id1 in tumor vessels (Id1; MMTV-HER2/neu (YD) Id1+/− mice, 15 nmol/d i.v., three consecutive days): no detectable down-regulation of Id1
- Id1 expression in tumor endothelium, IHC (Id1; YD neu transgenic animals, 25 nmol i.v., 3 subsequent days, 24 h after last injection): no effect
- closure of the applied scratch (HUVEC): closed completely
